Test [1] can be described thus: Sensory evaluation by 12 panelists of chicken soup spiked with the compounds. The following applies: versus un-spiked reference soup; for Flavor property in chicken soup (2 g/l): compound added at 2 g/l. As to the method: Sample preparation: Chicken soups were prepared by dissolving 6 g chicken base powder (detailed recipe shown in Table 1), 1 g monosodium glutamate and 1 g of sodium chloride in 500 mL hot water. The compounds were separately added at 2 g/l and 0.25 g/l.
Sensory protocol: The sensory evaluation was carried out by 12 panelists, previously screened for their sensory abilities. The panelists assessed a maximum of 6 samples per session. They had Vittel water and crackers as mouth cleansers. In all the cases, the panelists were instructed to evaluate the samples on the following attributes: overall flavor persistency, umami, meaty, grilled/popcorn, boiled chicken, sweet, bitter, salty. The samples were coded with random 3-digit numbers according to a balanced presentation design, heated at approximately 65° C. and then presented in 40 ml brown plastic containers and under red light to minimize appearance bias (the serving was approximately 25 ml per sample).

Test [2] in a line: Sensory comparison by 6 panelists (nose-clips) of soup with sugar conjugate vs equimolar glucose and lysine. The following applies: 2 g/L (6.49 mmol/L) in soup base versus same molar concentrations of glucose and lysine. Here is the method:
A first soup was prepared by adding 2 g/L (6.49 mmol/L) 1-deoxy-D-fructosyl-N-Lysine (GluAmadori-Lys2) in the soup base as described above. A second soup was prepared by adding same corresponding molar concentrations of glucose and lysine. The solutions were then evaluated by 6 panelists following the same procedure than described above with using nose-clips.

Test [3] can be described thus: Tomato soup seasoning compositions with added compound. The following applies: 0.5 g/L or 2.5 g/L, versus reference soups without the compounds. As to the method: Tomato soups can be prepared by dissolving 6 g tomato base powder as can be obtained in the commerce in 500 mL hot water. GluAmadori-Lys1 or GluAmadori-Lys2 can then be added at a concentration of 0.5 g/L or 2.5 g/L to the soups in order to improve their taste and flavor profile. […] For example, a similar tomato soup can now be prepared which has the same saltiness as the reference tomato soup but comprising less sodium chloride.

For test [4] the following is noted: described by T. Sonntag et al.; cited from earlier work.

Entries after “also recorded” stand apart in the source; their conditions may differ.

Results on six molecules are retold here after patent US20190223479A1, “SUGAR-DIPEPTIDE CONJUGATES AS FLAVOR MOLECULES” (NESTEC S.A., priority 2016, published 2019).

Turning to `N[C@@H](CCCCNCC1(O)OCC(O)C1O)C(=O)O` (stereo partly drawn) [RibAmadori-Lys2, N6-((2,3,4-trihydroxytetrahydrofuran-2-yl)methyl)lysine], the “Flavor property in chicken soup (2 g/l)” value in test [1] was “enhanced roasted flavor”.

Turning to “1-deoxy-D-fructosyl-N-Lysine [GluAmadori-Lys2]”, in test [2], the Sensory differences entry is “more salty and umami”. For the same molecule, the “Taste and flavor profile of tomato soup” value in test [3] is “more pronounced umami taste as well as being perceived as more salty”. The “Flavor property in chicken soup (2 g/l)” value in test [1] was “enhanced saltiness, umaminess and overall flavor persistency”. `NCCCC[C@H](N)C(=O)O` [L-lysine]: in test [4], the Taste quality result is “bitter tasting compound”.

As for `NCCCC[C@H](NCC1(O)OCC(O)C1O)C(=O)O` (stereo partly drawn) [XylAmadori-Lys1, ((2,3,4-trihydroxytetrahydrofuran-2-yl)methyl)lysine], the “Flavor property in chicken soup (0.25 g/l)” value in test [1] (compound added at 0.25 g/l) is “baked and roasted flavors were significantly increased”. Moreover, the “Flavor property in chicken soup (2 g/l)” value in test [1] is “baked and roasted flavors were significantly increased; also recorded: baked, roasted flavor”.

For `N[C@@H](CCCCNCC1(O)OCC(O)C1O)C(=O)O` (stereo partly drawn) [XylAmadori-Lys2, N6-((2,3,4-trihydroxytetrahydrofuran-2-yl)methyl)lysine], the “Flavor property in chicken soup (2 g/l)” value in test [1] was “enhanced meat flavor”. Still for that read-out and setting: next, `NCCCC[C@H](NCC1(O)OCC(O)C1O)C(=O)O` (stereo partly drawn) [RibAmadori-Lys1, ((2,3,4-trihydroxytetrahydrofuran-2-yl)methyl)lysine]: “baked and roasted flavors were significantly increased; also recorded: baked, roasted flavor”.
